Data as given in patent publication US11786534B2 (TAIHO PHARMACEUTICAL CO., LTD., priority 2019, dated 2023).

Key:
Format in all cases: biochemical
[1] = molecular target: T1, human EGFR (L858R/T790M/C797S) (Homo sapiens, UniProt P00533, C797S/L858R/T790M); assay: Inhibitory activity against EGFR (L858R/T790M/C797S) kinase
T1 construct: made in house; host or cells: Sf9 insect cells, baculovirus
In short: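 GST-tagged cytoplasmic domain of human EGFR L858R/T790M/C797S, expressed in Sf9 insect cells via baculovirus and glutathione-purified. Kinase reaction run at 0.5 μM ATP final; IC50 (nM) determined per compound.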

[2] = molecular target: T2, human EGFR (d746-750/C797S) (Homo sapiens, UniProt P00533, C797S/DEL746-750); assay: Inhibitory activity against EGFR (d746-750/C797S) kinase
T2 construct: purchased SignalChem
In short: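 Recombinant human EGFR d746-750/C797S in 13.5 mM Tris pH 7.5 with 2 mM DTT and 0.009% Tween-20. Reaction ran 60 min with 14 μM ATP, 20 mM MgCl2 and 12.5 mM MnCl2, stopped by 40 mM EDTA. IC50 in nM.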

human EGFR (WT) = molecular target: T3, human EGFR (WT) (Homo sapiens, UniProt P00533); assay: Inhibitory activity against EGFR (WT) kinase
T3 construct: purchased Carna Biosciences Inc., Japan
In short: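 Purified recombinant human wild-type EGFR kinase, with ATP at 1.5 μM final. Compound inhibition of kinase activity read out and fitted to give IC50 (nM).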

[3] = Test Example 1, Table 3, ATP 0.5 μM
[4] = Test Example 1, Table 4, ATP 14 μM, 60 minutes
[5] = Test Example 1, Table 6, ATP 1.5 μM

T3 sequence (P00533 25-1210): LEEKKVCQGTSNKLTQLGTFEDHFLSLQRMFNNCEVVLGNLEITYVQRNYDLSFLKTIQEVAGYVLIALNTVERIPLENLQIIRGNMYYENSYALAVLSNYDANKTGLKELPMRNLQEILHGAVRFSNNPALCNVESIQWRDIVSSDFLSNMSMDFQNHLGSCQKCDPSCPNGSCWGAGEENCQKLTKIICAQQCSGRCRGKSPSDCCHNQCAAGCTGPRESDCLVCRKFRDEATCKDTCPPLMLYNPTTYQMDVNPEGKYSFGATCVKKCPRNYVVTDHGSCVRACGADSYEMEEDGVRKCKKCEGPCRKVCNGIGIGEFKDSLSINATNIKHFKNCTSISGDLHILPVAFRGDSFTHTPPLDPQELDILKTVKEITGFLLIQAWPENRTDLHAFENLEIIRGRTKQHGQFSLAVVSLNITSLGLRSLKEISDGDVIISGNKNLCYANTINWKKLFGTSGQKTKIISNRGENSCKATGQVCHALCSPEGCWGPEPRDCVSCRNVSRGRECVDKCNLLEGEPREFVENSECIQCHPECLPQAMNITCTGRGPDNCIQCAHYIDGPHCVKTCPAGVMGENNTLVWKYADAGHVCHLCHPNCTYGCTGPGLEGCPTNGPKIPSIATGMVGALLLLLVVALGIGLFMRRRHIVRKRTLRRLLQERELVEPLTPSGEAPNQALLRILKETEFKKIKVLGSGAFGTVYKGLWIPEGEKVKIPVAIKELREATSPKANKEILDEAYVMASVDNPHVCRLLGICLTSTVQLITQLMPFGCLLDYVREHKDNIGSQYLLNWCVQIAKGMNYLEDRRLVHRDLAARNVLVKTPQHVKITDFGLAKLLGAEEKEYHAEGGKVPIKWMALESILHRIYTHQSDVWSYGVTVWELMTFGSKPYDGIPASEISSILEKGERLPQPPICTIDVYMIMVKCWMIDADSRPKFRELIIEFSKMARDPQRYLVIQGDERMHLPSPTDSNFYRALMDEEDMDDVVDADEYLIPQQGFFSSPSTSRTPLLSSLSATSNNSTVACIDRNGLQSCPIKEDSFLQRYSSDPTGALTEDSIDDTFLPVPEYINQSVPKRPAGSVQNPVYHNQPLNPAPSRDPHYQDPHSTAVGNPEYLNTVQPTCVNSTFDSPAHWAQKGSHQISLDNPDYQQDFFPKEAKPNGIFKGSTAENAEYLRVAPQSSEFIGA
T2 sequence (P00533 with tags, fused parts or gaps DEL746-750/C797S): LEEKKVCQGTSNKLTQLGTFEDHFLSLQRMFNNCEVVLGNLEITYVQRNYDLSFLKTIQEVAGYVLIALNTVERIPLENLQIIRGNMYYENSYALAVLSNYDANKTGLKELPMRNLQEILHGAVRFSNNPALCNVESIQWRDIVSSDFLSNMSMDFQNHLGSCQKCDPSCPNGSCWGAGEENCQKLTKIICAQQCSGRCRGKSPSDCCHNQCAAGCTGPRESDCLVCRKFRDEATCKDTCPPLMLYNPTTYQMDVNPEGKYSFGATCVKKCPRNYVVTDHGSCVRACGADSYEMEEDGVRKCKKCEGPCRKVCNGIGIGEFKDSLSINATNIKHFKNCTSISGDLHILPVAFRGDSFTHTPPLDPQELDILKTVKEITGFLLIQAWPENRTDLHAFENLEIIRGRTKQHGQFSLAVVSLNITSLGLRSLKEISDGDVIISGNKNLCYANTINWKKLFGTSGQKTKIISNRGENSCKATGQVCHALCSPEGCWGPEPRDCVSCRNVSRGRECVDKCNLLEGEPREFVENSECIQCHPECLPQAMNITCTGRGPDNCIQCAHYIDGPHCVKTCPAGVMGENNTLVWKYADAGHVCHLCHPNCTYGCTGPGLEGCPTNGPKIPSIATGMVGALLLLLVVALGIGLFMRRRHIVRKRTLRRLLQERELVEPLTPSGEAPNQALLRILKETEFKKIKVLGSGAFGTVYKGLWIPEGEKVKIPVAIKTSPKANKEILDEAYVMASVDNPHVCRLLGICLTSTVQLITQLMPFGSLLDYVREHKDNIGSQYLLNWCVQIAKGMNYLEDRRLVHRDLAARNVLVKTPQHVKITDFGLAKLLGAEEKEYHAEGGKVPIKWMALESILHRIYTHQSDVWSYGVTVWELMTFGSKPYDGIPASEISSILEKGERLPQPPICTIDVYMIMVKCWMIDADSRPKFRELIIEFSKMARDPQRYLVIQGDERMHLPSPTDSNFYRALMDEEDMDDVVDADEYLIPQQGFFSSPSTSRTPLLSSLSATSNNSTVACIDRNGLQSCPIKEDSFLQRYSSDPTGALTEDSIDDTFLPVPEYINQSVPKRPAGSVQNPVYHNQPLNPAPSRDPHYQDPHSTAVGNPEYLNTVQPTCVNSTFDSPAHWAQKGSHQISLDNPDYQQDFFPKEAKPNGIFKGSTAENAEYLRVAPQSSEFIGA
T1 sequence (P00533 with tags, fused parts or gaps T790M/C797S/L858R): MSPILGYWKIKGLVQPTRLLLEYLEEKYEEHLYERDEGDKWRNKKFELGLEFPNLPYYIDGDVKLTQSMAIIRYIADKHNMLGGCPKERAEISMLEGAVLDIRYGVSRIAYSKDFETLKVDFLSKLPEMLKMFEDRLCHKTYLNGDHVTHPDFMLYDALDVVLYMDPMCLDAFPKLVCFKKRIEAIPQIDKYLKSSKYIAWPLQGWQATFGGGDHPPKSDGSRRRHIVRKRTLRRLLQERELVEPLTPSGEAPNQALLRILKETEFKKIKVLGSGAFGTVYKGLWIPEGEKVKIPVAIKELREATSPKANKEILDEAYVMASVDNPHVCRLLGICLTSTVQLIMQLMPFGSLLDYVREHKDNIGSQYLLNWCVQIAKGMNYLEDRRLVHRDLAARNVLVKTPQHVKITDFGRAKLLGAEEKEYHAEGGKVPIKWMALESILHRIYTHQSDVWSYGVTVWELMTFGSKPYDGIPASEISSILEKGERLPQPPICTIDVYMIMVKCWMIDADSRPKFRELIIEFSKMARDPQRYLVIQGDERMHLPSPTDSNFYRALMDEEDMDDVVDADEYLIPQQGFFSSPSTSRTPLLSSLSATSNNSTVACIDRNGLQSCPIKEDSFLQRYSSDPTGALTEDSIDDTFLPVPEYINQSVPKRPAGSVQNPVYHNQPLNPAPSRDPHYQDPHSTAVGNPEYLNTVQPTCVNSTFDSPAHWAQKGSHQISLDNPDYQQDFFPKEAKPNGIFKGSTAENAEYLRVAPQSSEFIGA

SMILES | IC50 ([1]; Test Example 3, Table 9; same procedures as 2) in Test Example 1) [pM] | IC50 ([2]; Test Example 3, Table 10; same procedures as 3) in Test Example 1) [pM] | IC50 (human EGFR (WT); Test Example 3, Table 12; same procedures as 5) in Test Example 1) [pM] | IC50 [1, 3] [pM] | IC50 [2, 4] [pM] | IC50 (human EGFR (WT); [5]) [pM]
C#Cc1c(-c2cnc3ccccc3c2)c2c(N)ncnc2n1C12CCC(NC(=O)[C@@H]3CN(C)CCO3)(CC1)C2 [Example 63, (S)-N-(4-(4-Amino-6-ethynyl-5-(quinolin-3-yl)-7H-pyrrolo[2,3-d]pyrimidin-7-yl) -bicyclo[2.2.1]heptan-1-yl)-4-methylmorpholine-2-carboxamide] | < 300 | 510 | 2800 | – | – | –
C#Cc1c(-c2cnc3ccccc3c2)c2c(N)ncnc2n1C12CCC(NC(=O)c3cnc(C)cn3)(CC1)C2 [Example 37, N-(4-(4-Amino-6-ethynyl-5-(quinolin-3-yl)-7H-pyrrolo[2,3-d]pyrimidin-7-yl)-bicyclo-[2.2.1]heptan-1-yl)-5-methylpyrazine-2-carboxamide] | – | – | – | 520 | 500 | 920
C#Cc1c(-c2cnc3ccccc3c2)c2c(N)ncnc2n1C12CCC(NC(=O)c3ncco3)(CC1)C2 [Example 46] | – | – | – | 410 | 430 | 790
C#Cc1c(-c2cnc3ccccc3c2)c2c(N)ncnc2n1C12CCC(NC(=O)c3ccnn3C3CC3)(CC1)C2 [Example 20, N-(4-(4-Amino-6-ethynyl-5-(quinolin-3-yl)-7H-pyrrolo[2,3-d]pyrimidin-7-yl)bicyclo-[2.2.1]heptan-1-yl)-1-cyclopropyl-1H-pyrazole-5-carboxamide] | – | – | – | 440 | 680 | 2100
C#Cc1c(-c2cnc3ccccc3c2)c2c(N)ncnc2n1C12CCC(NC(=O)C(F)F)(CC1)C2 [Example 27, N-(4-(4-Amino-6-ethynyl-5-(quinolin-3-yl)-7H-pyrrolo[2,3-d]pyrimidin-7-yl)bicyclo-[2.2.1]heptan-1-yl)-2,2-difluoroacetamide] | – | – | – | 470 | 1200 | 2400
C#Cc1c(-c2cnc3ccccc3c2)c2c(N)ncnc2n1C12CCC(NC(=O)c3ccnnc3)(CC1)C2 [Example 3, N-(4-(4-Amino-6-ethynyl-5-(quinolin-3-yl)-7H-pyrrolo[2,3-d]pyrimidin-7-yl)bicyclo-[2.2.1]heptan-1-yl)pyridazine-4-carboxamide] | – | – | – | < 300 | < 300 | 450
C#Cc1c(-c2cnc3ccccc3c2)c2c(N)ncnc2n1C12CCC(NC(=O)c3cncnc3)(CC1)C2 [Example 2, N-(4-(4-Amino-6-ethynyl-5-(quinolin-3-yl)-7H-pyrrolo[2,3-d]pyrimidin-7-yl)bicyclo-[2.2.1]heptan-1-yl)pyrimidine-5-carboxamide] | – | – | – | < 300 | – | 520
C#Cc1c(-c2cnc3ccccc3c2)c2c(N)ncnc2n1C12CCC(NC(=O)c3ccco3)(CC1)C2 [Example 41] | – | – | – | 390 | 1400 | 2100
C#Cc1c(-c2cnc3ccccc3c2)c2c(N)ncnc2n1C12CCC(NC(=O)c3ccncc3)(CC1)C2 [Example 43] | – | – | – | – | 730 | 1700
C#Cc1c(-c2cnc3ccccc3c2)c2c(N)ncnc2n1C12CCC(NC(=O)c3ccnn3C)(CC1)C2 [Example 24, N-(4-(4-Amino-6-ethynyl-5-(quinolin-3-yl)-7H-pyrrolo[2,3-d]pyrimidin-7-yl)bicyclo-[2.2.1]heptan-1-yl)-1-methyl-1H-pyrazole-5-carboxamide] | – | – | – | < 300 | 500 | 730
C#Cc1c(-c2cnc3ccccc3c2)c2c(N)ncnc2n1C12CCC(NC(=O)c3cncc(F)c3)(CC1)C2 [Example 35, N-(4-(4-Amino-6-ethynyl-5-(quinolin-3-yl)-7H-pyrrolo[2,3-d]pyrimidin-7-yl)-bicyclo-[2.2.1]heptan-1-yl)-5-fluoronicotinamide] | – | – | – | 500 | 550 | 1300
C=CC(=O)N1CC[C@@H](n2cc(-c3cnc4ccccc4c3)c3c(N)ncnc32)C1 [Comparative Example A, (R)-1-(3(4-Amino-5-(quinolin-3-yl)-7H-pyrrolo[2,3-d]pyrimidin-7-yl)pyrrolidin-1-yl) -prop-2-en-1-one, reference compound] | – | – | – | 102000 | 264000 | 1600
C#Cc1c(-c2cnc3ccccc3c2)c2c(N)ncnc2n1C12CCC(NC(=O)c3nccs3)(CC1)C2 [Example 53] | – | – | – | 690 | 880 | 1900
C#Cc1c(-c2cnc3ccccc3c2)c2c(N)ncnc2n1C12CCC(CNC(=O)c3ccnn3C)(CC1)C2 [Example 13, N-((4-(4-Amino-6-ethynyl-5-(quinolin-3-yl)-7H-pyrrolo[2,3-d]pyrimidin-7-yl)bicyclo-[2.2.1]heptan-1-yl)methyl)-1-methyl-1H-pyrazole-5-carboxamide] | – | – | – | – | 670 | 610
C#Cc1c(-c2cnc3ccccc3c2)c2c(N)ncnc2n1C12CCC(CNC(=O)c3cnc(C)cn3)(CC1)C2 [Example 14, N-((4-(4-Amino-6-ethynyl-5-(quinolin-3-yl)-7H-pyrrolo[2,3-d]pyrimidin-7-yl)bicyclo-[2.2.1]heptan-1-yl)methyl)-5-methylpyrazine-2-carboxamide] | – | – | – | – | 790 | 1700
C#Cc1c(-c2cnc3ccccc3c2)c2c(N)ncnc2n1C12CCC(NC(=O)c3ccccc3)(CC1)C2 [Example 1, N-(4-(4-Amino-6-ethynyl-5-(quinolin-3-yl)-7H-pyrrolo[2,3-d]pyrimidin-7-yl)bicyclo-[2.2.1]heptan-1-yl)benzamide] | – | – | – | 460 | 1800 | 2100
C#Cc1c(-c2cnc3ccccc3c2)c2c(N)ncnc2n1C12CCC(NC(=O)c3cnns3)(CC1)C2 [Example 18, N-(4-(4-Amino-6-ethynyl-5-(quinolin-3-yl)-7H-pyrrolo[2,3-d]pyrimidin-7-yl)bicyclo-[2.2.1]heptan-1-yl)-1,2,3-thiadiazole-5-carboxamide] | – | – | – | 420 | 780 | 1400
C#Cc1c(-c2cnc3ccccc3c2)c2c(N)ncnc2n1C12CCC(NC(=O)c3ccno3)(CC1)C2 [Example 44] | – | – | – | 320 | 730 | 800
C#Cc1c(-c2cnc3ccccc3c2)c2c(N)ncnc2n1C12CCC(NC(=O)c3ccc4ncnn4c3)(CC1)C2 [Example 16, N-(4-(4-Amino-6-ethynyl-5-(quinolin-3-yl)-7H-pyrrolo[2,3-d]pyrimidin-7-yl)bicyclo-[2.2.1]heptan-1-yl)-[1.2.4]triazolo[1,5-a]pyrimidin-6-carboxamide] | – | – | – | 360 | 450 | 530
C#Cc1c(-c2cnc3ccccc3c2)c2c(N)ncnc2n1C12CCC(NC(=O)c3cccnc3)(CC1)C2 [Example 45] | – | – | – | – | 670 | 1900
C#Cc1c(-c2cnc3ccccc3c2)c2c(N)ncnc2n1C12CCC(N3CCOCC3)(CC1)C2 [Example 9, 6-Ethynyl-7-(4-morpholinobicyclo[2.2.1]heptan-1-yl)-5-(quinolin-3-yl)-7H-pyrrolo[2,3-d]pyrimidine-4-amine] | – | – | – | – | 360 | 2600
C#Cc1c(-c2cnc3ccccc3c2)c2c(N)ncnc2n1C12CCC(NC(=O)c3nccn3C)(CC1)C2 [Example 23, N-(4-(4-Amino-6-ethynyl-5-(quinolin-3-yl)-7H-pyrrolo[2,3-d]pyrimidin-7-yl)bicyclo-[2.2.1]heptan-1-yl)-1-methyl-1H-imidazole-2-carboxamide] | – | – | – | 420 | 700 | 1400
C#Cc1c(-c2cnc3ccccc3c2)c2c(N)ncnc2n1C12CCC(NC(=O)c3noc(C)n3)(CC1)C2 [Example 36, N-(4-(4-Amino-6-ethynyl-5-(quinolin-3-yl)-7H-pyrrolo[2,3-d]pyrimidin-7-yl)-bicyclo-[2.2.1]heptan-1-yl)-5-methyl-1,2,4-oxadiazole-3-carboxamide] | – | – | – | 560 | 610 | 2600
C#Cc1c(-c2cnc3ccccc3c2)c2c(N)ncnc2n1C12CCC(NC(=O)c3cnccn3)(CC1)C2 [Example 48] | – | – | – | < 300 | 460 | 750
C#Cc1c(-c2cnc3ccccc3c2)c2c(N)ncnc2n1C12CCC(NC(C)=O)(CC1)C2 [Example 39, N-(4-(4-Amino-6-ethynyl-5-(quinolin-3-yl)-7H-pyrrolo[2,3-d]pyrimidin-7-yl)-bicyclo-[2.2.1]heptan-1-yl)acetamide] | – | – | – | 360 | 750 | 1500
C#Cc1c(-c2cnc3ccccc3c2)c2c(N)ncnc2n1[C@@H]1CCN(C(=O)C=C)C1 [Comparative Example B, (R)-1-(3-(4-Amino-6-ethynyl-5-(quinolin-3-yl)-7H-pyrrolo[2,3-d]pyrimidin-7-yl) -pyrrolidin-1-yl)-prop-2-en-1-one, reference compound] | – | – | – | 43000 | 93000 | 950
C#Cc1c(-c2cnc3ccccc3c2)c2c(N)ncnc2n1C12CCC(NC(=O)c3cccnn3)(CC1)C2 [Example 49] | – | – | – | 470 | 490 | 860
